# Reference: patent publication US20250282784A1, “CYTOCHROME BD OXIDASE INHIBITORS AND USES THEREOF” (UNIVERSITY OF NOTRE DAME DU LAC, priority 2022, published 2025)
# What was measured:
# [1] = tested on: M. abscessus ATCC 19977T deficient for the expression of the cyt-bcc:aa3 (ΔqcrCAB); assay: ATP levels in M. abscessus deficient for cyt-bcc:aa3 (ΔqcrCAB), 2-fold dose-response; type: cell-based, Mycobacterium abscessus; conditions: Mycobacteroides abscessus, read-out: ATP IC50 ΔgcrCAB
# Procedure: (§1) The compounds described and provided herein were evaluated for their potential to inhibit Cytochrome BD oxidase in Mycobacterium abscessus. M. abscessus ATCC 19977T wild-type (WT) and deficient for the expression of the cyt-bcc:aa3 (ΔqcrCAB) were treated with a 2-fold dose-response (starting from 40 μM) of the drugs. ATP levels were measured after 6 to 15 hours of incubation using a commercial kit.
# (§2) M. abscessus ATCC 19977T wild-type (WT) and deficient for the expression of the cyt-bcc:aa3 (ΔqcrCAB) were treated with a 2-fold dose-response (starting from 40 μM) of the drugs. ATP levels were measured after 6 to 15 hours of incubation using a commercial kit.
# [2] = tested on: M. abscessus ATCC 19977T wild-type (WT); assay: ATP levels in M. abscessus wild-type, 2-fold dose-response; type: cell-based, Mycobacterium abscessus; conditions: Mycobacteroides abscessus, read-out: ATP IC50 WT
# Procedure: as §1, §2
# M. abscessus = assay: Killing of M. abscessus by clofazimine with or without Compound 12 (FIG. 1)
SMILES,IC50 [1],IC50 [2],"Synergy with clofazimine to kill M. abscessus (M. abscessus; combination of Compound 12 with clofazimine, FIG. 1)","Type of activity of clofazimine against M. abscessus, tested alone (M. abscessus; clofazimine alone)",Type of activity of clofazimine against M. abscessus in the presence of Compound 12 (M. abscessus; in the presence of Compound 12)
"Cc1cc2nc(NC3CCCCC3)c3ccccc3n2n1 [Compound 5, N-cyclohexyl-2-methylpyrazolo[1,5-a] quinazolin-5-amine]",6.89 µM,> 40 µM,,,
"Cc1cc2nc(NC3CCC(C)CC3)c3ccccc3n2n1 (centres unmarked) [Compound 24, 2-methyl-N-(4-methylcyclohexyl)pyrazolo [1,5-a]quinazolin-5-amine]",9.2 µM,> 40 µM,,,
"Cc1cc2nc(NC3CCCCCC3)c3ccccc3n2n1 [Compound 12, N-cycloheptyl-2-methylpyrazolo[1,5-a] quinazolin-5-amine]",17.4 µM,> 40 µM,synergizes with clofazimine to kill M. abscessus,,
"Cc1cc2nc(NC3CCCC3)c3ccccc3n2n1 [Compound 8, N-cyclopentyl-2-methylpyrazolo[1,5-a] quinazolin-5-amine]",15.3 µM,> 40 µM,,,
"Cc1cc2nc(NCC3CC3)c3ccccc3n2n1 [Compound 22, N-(cyclopropylmethyl)-2-methylpyrazolo[1,5-a] quinazolin-5-amine]",19.6 µM,> 40 µM,,,
"Cc1cc2nc(N[C@H]3CCC[C@@H](c4ccc(C(F)(F)F)cc4)C3)c3ccccc3n2n1 [Compound 15A, 2-methyl-N-((1S,3R)-3-(4-(trifluoromethyl)phenyl)cyclohexyl)pyrazolo[1,5-a] quinazolin-5-amine]",6.6 µM,> 40 µM,,,
"Cc1cc2nc(Nc3ccc(Oc4ccc(C(F)(F)F)cc4)cc3)c3ccccc3n2n1 [Compound 14, 2-methyl-N-(4-(4-(trifluoromethyl)phenoxy)phenyl)pyrazolo[1,5-a] quinazolin-5-amine]",> 40 µM,> 40 µM,,,
"Cc1cc2nc(NC3CCC3)c3ccccc3n2n1 [Compound 18, N-cyclobutyl-2-methylpyrazolo[1,5-a] quinazolin-5-amine]",9.7 µM,> 40 µM,,,
"Cc1cc2nc(NC3CCC(C(F)(F)F)CC3)c3ccccc3n2n1 (centres unmarked) [Compound 23, 2-methyl-N-(4-(trifluoromethyl)cyclohexyl) pyrazolo[1,5-a] quinazolin-5-amine]",9 µM,> 40 µM,,,
"Cc1cc2nc(NC3CC(C)(C)CC(C)(C)C3)c3ccccc3n2n1 [Compound 2, 2-methyl-N-(3,3,5,5-tetramethylcyclohexyl) pyrazolo[1,5-a] quinazolin-5-amine]",> 40 µM,> 40 µM,,,
"Cc1cc2nc(NC3CCC(F)(F)CC3)c3ccccc3n2n1 [Compound 3, N-(4,4-difluorocyclohexyl)-2-methylpyrazolo[1,5-a] quinazolin-5-amine]",20 µM,> 40 µM,,,
"Cc1cc2nc(NC3CCC(C(C)(C)C)CC3)c3ccccc3n2n1 (centres unmarked) [Compound 26, N-(4-(tert-butyl)cyclohexyl)-2-methylpyrazolo[1,5-a] quinazolin-5-amine]",4.4 µM,> 40 µM,,,
"FC(F)(F)c1ccc([C@@H]2CCC[C@H](Nc3nc4ccnn4c4ccccc34)C2)cc1 [Compound 16A, N-((1S,3R)-3-(4-(trifluoromethyl)phenyl)cyclohexyl)pyrazolo[1,5-a] quinazolin-5-amine]",32.8 µM,> 40 µM,,,
"Cc1cc2nc(NC3CCCCCCC3)c3ccccc3n2n1 [Compound 9, N-cyclooctyl-2-methylpyrazolo[1,5-a] quinazolin-5-amine]",25.9 µM,> 40 µM,,,
"Cc1cc2nc(NCC3CCCCC3)c3ccccc3n2n1 [Compound 21, N-(cyclohexylmethyl)-2-methylpyrazolo[1,5-a] quinazolin-5-amine]",12.1 µM,> 40 µM,,,
Cc1cc2nc(NC3CCC(C(C)C)CC3)c3ccccc3n2n1 (centres unmarked) [Compound 25],2.6 µM,> 40 µM,,,
"Cc1cc2nc(Cl)c3ccccc3n2n1 [Compound 7, S-chloro-2-methylpyrazolo[1,5-a] quinazoline]",> 40 µM,> 40 µM,,,
"Cc1cc2nc(NC3CC4(CCC4)C3)c3ccccc3n2n1 [Compound 17, 2-methyl-N-(spiro[3.3]heptan-2-yl)pyrazolo[1,5-a] quinazolin-5-amine]",3.2 µM,> 40 µM,,,
"CC(C)/N=c1\cc2n(-c3ccc(Cl)cc3)c3ccccc3nc-2cc1Nc1ccc(Cl)cc1 [clofazimine, reference compound]",,,,bacteriostatic,bactericidal
"Cc1cc2nc(NCc3ccc(N4CCN(c5ccc(F)cc5)CC4)cc3)c3ccccc3n2n1 [Compound 6, N-(4-(4-(4-fluorophenyl)piperazin-1-yl)benzyl)-2-methylpyrazolo[1,5-a] quinazolin-5-amine]",> 40 µM,> 40 µM,,,
"Cc1cc2nc(NCCc3ccc(C(F)(F)F)cc3)c3ccccc3n2n1 [Compound 1, 2-methyl-N-(4-(trifluoromethyl)phenethyl) pyrazolo[1,5-a]quinazolin-5-amine]",12.1 µM,> 40 µM,,,
"Cc1cc2nc(N[C@@H]3C[C@H]3c3ccc(F)c(F)c3)c3ccccc3n2n1 [Compound 19A, N-((1R,2S)-2-(3,4-difluorophenyl)cyclopropyl)-2-methylpyrazolo[1,5-a] quinazolin-5-amine]",18.7 µM,> 40 µM,,,
"Cc1cc2nc(NC34CC5CC(CC(C5)C3)C4)c3ccccc3n2n1 [Compound 4, N-((3s,5s,7s)-adamantan-1-yl)-2-methylpyrazolo[1,5-a] quinazolin-5-amine]",9.73 µM,> 40 µM,,,
